The target in one assay is Ephrin type-A receptor 4 (Homo sapiens, UniProt P54764). The experiment in a line: Induction of stabilization of recombinant EPHA4 (unknown origin) assessed as change in melting temperature by differential scanning fluorimetry assay. On the technique in general: Differential scanning fluorimetry follows unfolding on heating by fluorescence.
For assay [1], the target named is Ephrin type-A receptor 7 (Homo sapiens) (UniProt Q15375). The experiment in a line: Induction of stabilization of recombinant EPHA7 (unknown origin) assessed as change in melting temperature by differential scanning fluorimetry assay.
Chain of Ephrin type-A receptor 7 (Homo sapiens) (Q15375 28-998 limits assumed): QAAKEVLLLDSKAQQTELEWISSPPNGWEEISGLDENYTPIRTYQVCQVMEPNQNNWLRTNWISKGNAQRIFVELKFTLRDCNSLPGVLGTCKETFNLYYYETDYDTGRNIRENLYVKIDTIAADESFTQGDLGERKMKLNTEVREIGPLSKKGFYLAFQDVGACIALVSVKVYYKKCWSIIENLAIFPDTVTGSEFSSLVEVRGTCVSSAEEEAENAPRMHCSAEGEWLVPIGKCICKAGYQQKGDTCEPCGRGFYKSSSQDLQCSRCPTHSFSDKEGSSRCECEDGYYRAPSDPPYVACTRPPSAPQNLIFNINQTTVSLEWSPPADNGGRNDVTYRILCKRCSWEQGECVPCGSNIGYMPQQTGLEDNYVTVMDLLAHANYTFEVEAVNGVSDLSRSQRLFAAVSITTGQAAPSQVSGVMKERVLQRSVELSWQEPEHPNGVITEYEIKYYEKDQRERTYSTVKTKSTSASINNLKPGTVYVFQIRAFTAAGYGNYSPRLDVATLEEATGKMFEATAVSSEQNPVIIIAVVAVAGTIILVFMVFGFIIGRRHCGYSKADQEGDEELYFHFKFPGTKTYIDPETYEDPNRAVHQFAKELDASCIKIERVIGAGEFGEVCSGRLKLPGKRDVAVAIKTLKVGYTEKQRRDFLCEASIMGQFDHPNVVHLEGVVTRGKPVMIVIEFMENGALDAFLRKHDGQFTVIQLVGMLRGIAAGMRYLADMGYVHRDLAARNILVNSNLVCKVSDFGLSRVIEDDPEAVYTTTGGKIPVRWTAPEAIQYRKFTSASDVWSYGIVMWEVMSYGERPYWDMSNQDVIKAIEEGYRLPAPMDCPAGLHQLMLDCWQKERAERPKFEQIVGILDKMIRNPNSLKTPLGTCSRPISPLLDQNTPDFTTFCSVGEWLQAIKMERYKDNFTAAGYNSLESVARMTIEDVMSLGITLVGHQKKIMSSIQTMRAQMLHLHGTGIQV
Assay [2] addresses T1, Ephrin type-B receptor 1 (Homo sapiens) (UniProt P54762).
T1 sequence (whole entry): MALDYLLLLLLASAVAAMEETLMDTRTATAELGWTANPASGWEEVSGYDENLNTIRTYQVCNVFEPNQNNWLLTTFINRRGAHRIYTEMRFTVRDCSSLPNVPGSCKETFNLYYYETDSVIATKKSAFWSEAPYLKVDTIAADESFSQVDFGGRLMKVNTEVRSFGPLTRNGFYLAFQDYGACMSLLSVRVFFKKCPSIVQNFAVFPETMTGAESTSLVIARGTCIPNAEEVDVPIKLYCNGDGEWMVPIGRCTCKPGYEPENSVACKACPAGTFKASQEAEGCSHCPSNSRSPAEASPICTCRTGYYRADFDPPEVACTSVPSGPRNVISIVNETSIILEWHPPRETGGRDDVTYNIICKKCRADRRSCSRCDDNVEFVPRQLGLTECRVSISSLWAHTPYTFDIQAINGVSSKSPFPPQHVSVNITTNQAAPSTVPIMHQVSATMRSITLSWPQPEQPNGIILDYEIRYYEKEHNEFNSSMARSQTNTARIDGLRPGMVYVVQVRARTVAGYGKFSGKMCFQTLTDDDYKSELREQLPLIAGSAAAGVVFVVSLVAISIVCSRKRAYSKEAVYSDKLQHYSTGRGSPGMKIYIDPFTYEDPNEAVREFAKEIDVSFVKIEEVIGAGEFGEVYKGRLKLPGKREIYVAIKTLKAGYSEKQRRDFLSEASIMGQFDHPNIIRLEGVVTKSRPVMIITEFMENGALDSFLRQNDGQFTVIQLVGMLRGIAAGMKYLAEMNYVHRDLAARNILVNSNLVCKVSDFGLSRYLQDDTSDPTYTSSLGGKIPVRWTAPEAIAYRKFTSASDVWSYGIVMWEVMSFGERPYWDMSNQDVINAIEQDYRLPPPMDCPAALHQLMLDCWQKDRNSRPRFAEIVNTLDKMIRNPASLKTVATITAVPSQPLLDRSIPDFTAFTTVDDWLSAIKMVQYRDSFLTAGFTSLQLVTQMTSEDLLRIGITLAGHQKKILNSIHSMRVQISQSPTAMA
Nature of the assay: Induction of stabilization of recombinant EPHB1 (unknown origin) assessed as change in melting temperature by differential scanning fluorimetry assay.

The target in assay [3] is T2, Ephrin type-B receptor 3 (Homo sapiens) (UniProt P54753).
T2 sequence (whole entry): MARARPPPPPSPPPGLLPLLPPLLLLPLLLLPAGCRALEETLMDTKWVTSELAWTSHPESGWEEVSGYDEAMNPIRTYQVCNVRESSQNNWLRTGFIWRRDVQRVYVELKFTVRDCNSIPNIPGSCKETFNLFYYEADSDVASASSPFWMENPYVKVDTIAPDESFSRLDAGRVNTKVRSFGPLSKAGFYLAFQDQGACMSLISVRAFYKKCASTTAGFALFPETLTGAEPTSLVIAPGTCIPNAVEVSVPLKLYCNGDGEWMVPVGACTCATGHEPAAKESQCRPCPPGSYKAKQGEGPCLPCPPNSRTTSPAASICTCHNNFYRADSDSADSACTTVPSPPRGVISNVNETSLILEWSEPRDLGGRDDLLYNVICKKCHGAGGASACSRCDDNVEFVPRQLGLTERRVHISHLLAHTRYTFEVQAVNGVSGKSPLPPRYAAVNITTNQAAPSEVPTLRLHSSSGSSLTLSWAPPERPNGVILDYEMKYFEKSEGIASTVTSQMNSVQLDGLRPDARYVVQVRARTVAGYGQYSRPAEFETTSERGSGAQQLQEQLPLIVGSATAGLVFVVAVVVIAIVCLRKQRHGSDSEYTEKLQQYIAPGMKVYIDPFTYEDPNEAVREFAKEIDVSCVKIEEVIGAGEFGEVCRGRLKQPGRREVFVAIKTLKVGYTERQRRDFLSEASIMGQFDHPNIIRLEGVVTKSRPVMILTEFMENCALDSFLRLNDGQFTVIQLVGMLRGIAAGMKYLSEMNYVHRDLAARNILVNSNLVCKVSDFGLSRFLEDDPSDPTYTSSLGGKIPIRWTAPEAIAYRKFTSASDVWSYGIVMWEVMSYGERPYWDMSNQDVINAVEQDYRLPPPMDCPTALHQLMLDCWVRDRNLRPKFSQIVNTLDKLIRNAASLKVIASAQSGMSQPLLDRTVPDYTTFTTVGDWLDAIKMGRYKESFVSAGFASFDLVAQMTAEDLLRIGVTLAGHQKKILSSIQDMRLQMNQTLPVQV
Nature of the assay: Induction of stabilization of recombinant EPHB3 (unknown origin) assessed as change in melting temperature by differential scanning fluorimetry assay.

Assay [4] has as its target Vascular endothelial growth factor receptor 1 (Homo sapiens, UniProt P17948). Nature of the assay: Induction of stabilization of recombinant FLT1 (unknown origin) assessed as change in melting temperature by differential scanning fluorimetry assay.
For a further assay, the target named is Ephrin type-A receptor 2 (Homo sapiens, UniProt P29317).
Chain of Ephrin type-A receptor 2 (P29317 whole entry): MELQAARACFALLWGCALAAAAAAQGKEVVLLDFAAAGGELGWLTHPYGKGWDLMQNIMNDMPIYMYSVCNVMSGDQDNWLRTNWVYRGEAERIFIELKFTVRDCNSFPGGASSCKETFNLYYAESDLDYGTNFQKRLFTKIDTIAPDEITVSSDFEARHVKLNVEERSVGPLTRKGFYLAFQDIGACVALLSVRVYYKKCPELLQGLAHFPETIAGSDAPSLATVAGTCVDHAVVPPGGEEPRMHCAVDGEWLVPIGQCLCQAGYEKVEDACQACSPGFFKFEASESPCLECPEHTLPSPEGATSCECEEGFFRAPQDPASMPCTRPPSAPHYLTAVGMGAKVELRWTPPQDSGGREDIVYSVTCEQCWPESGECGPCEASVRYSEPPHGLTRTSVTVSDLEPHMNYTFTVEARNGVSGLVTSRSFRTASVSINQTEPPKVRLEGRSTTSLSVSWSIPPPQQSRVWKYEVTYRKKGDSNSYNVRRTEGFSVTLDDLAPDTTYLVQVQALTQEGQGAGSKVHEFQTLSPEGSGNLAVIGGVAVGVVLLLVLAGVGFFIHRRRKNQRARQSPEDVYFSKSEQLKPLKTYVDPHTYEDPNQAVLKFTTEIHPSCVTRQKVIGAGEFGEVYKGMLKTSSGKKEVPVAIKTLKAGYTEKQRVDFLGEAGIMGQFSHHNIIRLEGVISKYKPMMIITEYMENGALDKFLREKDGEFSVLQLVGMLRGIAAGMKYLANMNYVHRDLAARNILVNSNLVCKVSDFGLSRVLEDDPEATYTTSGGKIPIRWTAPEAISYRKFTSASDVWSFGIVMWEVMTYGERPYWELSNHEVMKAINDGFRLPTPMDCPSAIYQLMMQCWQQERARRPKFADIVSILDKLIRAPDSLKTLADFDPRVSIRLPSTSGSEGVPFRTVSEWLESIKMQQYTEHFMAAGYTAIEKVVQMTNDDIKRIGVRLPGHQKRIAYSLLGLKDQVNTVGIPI
For assay [5], the target named is Ephrin type-A receptor 5 (Homo sapiens) (UniProt P54756).
Chain of Ephrin type-A receptor 5 (Homo sapiens) (P54756 whole entry): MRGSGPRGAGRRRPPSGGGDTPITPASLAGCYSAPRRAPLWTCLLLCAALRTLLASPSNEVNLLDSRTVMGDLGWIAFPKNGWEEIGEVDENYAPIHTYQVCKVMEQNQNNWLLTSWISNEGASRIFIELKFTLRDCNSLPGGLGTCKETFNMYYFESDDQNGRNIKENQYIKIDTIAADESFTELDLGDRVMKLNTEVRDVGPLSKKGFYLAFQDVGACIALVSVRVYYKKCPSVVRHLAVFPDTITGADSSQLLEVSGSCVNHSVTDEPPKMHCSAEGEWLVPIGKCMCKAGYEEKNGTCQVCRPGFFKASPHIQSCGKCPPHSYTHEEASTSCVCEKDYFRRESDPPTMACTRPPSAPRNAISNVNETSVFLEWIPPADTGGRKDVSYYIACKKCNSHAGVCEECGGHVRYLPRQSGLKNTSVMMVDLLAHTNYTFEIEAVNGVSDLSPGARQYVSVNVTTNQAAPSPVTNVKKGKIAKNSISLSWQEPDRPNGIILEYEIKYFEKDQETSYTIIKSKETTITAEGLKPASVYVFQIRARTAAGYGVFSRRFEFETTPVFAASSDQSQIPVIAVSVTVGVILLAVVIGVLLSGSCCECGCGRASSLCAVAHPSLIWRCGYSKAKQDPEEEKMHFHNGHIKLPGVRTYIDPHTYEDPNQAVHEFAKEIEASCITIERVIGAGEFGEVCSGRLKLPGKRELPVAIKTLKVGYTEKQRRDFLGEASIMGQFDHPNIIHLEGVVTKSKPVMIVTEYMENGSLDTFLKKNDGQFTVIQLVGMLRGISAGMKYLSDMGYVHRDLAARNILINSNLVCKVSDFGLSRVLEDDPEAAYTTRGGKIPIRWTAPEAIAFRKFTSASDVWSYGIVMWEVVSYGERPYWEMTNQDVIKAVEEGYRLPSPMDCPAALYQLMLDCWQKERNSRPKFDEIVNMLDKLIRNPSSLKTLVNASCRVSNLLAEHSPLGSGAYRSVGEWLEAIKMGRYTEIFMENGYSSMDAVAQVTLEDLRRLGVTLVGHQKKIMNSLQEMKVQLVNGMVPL
Description: Induction of stabilization of recombinant EPHA5 (unknown origin) assessed as change in melting temperature by differential scanning fluorimetry assay
For assay [6], the target named is Fibroblast growth factor receptor 1 (Homo sapiens, UniProt P11362).
Chain of Fibroblast growth factor receptor 1 (P11362 22-822 limits assumed): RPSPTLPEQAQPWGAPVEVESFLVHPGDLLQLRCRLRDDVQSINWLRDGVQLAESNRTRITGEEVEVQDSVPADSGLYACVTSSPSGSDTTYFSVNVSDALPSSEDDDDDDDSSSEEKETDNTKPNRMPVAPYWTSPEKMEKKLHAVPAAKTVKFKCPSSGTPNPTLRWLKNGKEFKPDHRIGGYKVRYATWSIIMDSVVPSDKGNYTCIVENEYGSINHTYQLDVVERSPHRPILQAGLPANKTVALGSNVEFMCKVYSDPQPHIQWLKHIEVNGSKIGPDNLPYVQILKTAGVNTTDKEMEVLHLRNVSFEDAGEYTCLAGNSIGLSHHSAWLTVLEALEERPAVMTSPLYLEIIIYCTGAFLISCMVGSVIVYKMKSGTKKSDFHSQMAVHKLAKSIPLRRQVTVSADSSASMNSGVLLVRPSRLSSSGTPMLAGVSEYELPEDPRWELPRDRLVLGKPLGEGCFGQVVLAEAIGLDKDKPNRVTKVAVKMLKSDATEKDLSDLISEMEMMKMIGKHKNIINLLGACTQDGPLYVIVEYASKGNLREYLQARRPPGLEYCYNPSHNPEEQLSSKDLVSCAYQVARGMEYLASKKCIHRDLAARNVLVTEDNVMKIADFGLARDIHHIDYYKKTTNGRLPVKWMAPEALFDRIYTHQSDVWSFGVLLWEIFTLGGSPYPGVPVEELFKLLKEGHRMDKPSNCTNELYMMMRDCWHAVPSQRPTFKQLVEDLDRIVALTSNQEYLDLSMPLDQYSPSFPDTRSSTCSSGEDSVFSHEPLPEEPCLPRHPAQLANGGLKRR
Description: Induction of stabilization of recombinant FGFR1 (unknown origin) assessed as change in melting temperature by differential scanning fluorimetry assay
In assay [7] the target is Fibroblast growth factor receptor 2 (Homo sapiens) (UniProt P21802).
Chain of Fibroblast growth factor receptor 2 (Homo sapiens) (P21802 22-821 limits assumed): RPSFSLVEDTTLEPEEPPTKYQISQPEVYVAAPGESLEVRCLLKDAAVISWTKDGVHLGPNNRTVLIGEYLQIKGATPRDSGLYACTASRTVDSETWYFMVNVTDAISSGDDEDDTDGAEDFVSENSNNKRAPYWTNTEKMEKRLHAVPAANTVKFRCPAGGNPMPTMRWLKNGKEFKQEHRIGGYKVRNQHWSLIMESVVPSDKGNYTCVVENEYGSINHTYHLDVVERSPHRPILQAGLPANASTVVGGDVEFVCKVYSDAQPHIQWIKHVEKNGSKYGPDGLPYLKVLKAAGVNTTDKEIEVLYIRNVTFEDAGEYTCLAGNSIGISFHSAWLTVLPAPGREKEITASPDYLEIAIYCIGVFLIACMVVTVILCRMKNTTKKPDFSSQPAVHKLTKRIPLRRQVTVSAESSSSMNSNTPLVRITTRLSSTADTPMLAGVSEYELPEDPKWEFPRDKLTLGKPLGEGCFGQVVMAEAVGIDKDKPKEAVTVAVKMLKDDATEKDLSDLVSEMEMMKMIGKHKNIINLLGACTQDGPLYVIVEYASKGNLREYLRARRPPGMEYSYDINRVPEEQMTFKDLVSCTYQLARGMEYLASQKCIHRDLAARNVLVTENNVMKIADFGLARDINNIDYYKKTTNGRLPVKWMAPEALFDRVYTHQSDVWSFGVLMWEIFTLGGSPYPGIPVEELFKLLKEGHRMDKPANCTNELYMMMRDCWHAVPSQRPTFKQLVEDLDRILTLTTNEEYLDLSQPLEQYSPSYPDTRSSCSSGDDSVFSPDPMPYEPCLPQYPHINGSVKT
Description: Induction of stabilization of recombinant FGFR2 (unknown origin) assessed as change in melting temperature by differential scanning fluorimetry assay
Assay [8] addresses T3, Cyclin-G-associated kinase (Homo sapiens) (UniProt O14976).
T3 sequence (whole entry): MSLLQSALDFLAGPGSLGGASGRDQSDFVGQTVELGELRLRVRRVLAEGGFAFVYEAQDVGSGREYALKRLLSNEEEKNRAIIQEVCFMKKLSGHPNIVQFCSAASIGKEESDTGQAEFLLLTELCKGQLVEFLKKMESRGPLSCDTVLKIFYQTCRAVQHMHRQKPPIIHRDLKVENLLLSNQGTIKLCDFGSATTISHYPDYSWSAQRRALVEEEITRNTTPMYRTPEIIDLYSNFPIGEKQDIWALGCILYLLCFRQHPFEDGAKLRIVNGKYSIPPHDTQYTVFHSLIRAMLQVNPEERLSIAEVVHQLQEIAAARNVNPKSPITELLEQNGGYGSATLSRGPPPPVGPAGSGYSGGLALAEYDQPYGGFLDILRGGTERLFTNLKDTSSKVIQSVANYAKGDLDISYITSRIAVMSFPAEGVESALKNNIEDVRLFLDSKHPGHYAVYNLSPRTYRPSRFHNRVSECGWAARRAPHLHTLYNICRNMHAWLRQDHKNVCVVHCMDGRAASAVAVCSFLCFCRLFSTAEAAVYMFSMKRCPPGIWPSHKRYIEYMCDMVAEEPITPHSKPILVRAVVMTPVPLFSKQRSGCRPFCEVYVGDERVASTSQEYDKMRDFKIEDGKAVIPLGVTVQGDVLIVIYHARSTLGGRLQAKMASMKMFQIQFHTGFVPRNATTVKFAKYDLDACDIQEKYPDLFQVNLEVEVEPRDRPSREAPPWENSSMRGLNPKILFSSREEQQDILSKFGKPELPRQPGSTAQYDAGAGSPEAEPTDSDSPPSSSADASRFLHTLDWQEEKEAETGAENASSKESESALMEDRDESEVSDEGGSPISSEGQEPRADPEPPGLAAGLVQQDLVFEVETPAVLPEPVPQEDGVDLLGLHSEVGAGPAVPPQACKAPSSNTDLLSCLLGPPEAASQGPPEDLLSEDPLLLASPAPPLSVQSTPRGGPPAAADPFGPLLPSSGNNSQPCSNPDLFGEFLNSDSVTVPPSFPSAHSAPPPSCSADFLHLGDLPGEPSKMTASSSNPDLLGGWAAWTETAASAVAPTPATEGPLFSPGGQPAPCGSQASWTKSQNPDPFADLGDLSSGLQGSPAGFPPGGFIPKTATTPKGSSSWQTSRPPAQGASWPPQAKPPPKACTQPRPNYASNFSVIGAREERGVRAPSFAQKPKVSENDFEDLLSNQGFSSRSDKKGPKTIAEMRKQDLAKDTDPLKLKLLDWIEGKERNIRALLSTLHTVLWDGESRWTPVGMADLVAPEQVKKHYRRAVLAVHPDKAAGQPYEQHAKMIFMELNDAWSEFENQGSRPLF
Description: Induction of stabilization of recombinant GAK (unknown origin) assessed as change in melting temperature by differential scanning fluorimetry assay

Description for Ephrin type-A receptor 2: Induction of stabilization of recombinant EPHA2 (D596 to G900 residues) (unknown origin) expressed in Escherichia coli rosetta BL21(D3)-R3-pRARE2 competent cells assessed as change in melting temperature by differential scanning fluorimetry assay

As for `COC(=O)c1ccc(-c2cnc3nc2NCCCNS(=O)(=O)c2cccc(c2)N3)cc1OC`, the deltaTm at Ephrin type-A receptor 4 came out at 1.3 K; in assay [1], 0.1 K; in assay [2], 1.1 K; in [3] it was 1.3 K; in assay [4], 2.6 K; at Ephrin type-A receptor 2, 2.9 K. Besides, the deltaTm in assay [5] was 1.8 K; in assay [6], 0.6 K; in [7], 1.8 K; in [8], 3.1 K.

Turning to `COc1cc(-c2cnc3nc2NCCCNS(=O)(=O)c2cc(ccc2OCCN2CCOCC2)N3)ccc1F`, the deltaTm was 3.7 K on Ephrin type-A receptor 4; 1 K in assay [1]; 4.2 K in [2]; 4.8 K in assay [3]; 3 K in assay [4]; 6.9 K on Ephrin type-A receptor 2. The deltaTm in assay [5] was determined as 4.6 K; in [6] it was 2.1 K; in [7], 3.2 K; in assay [8], 9 K.

Consider `COc1cc(-c2cnc3nc2NCCCNS(=O)(=O)c2cccc(c2)N3)ccc1Cl`, for which the deltaTm was determined as 4.1 K on Ephrin type-A receptor 4; 2.1 K in assay [1]; 0.9 K in assay [2]; 4.7 K in [3]; 5.2 K in assay [4]; 7.7 K at Ephrin type-A receptor 2. The deltaTm amounted to 4.9 K in assay [5], 3.3 K in assay [6], 3.8 K in assay [7] and 7.1 K in assay [8].

As for `O=S1(=O)NCCCNc2nc(ncc2-c2ccc(F)c(Cl)c2)Nc2cccc1c2`, the deltaTm was 4.6 K at Ephrin type-A receptor 4; -1.5 K in assay [1]; 5.3 K in assay [2]; 4.3 K in [3]; 7.5 K in assay [4]; 9.2 K on Ephrin type-A receptor 2. Besides, the deltaTm was determined as 5.7 K in assay [5], 3.8 K in assay [6], 5.5 K in assay [7] and 6.3 K in assay [8].

Regarding `CN[C@@H]1C[C@H]2O[C@@](C)([C@@H]1OC)n1c3ccccc3c3c4c(c5c6ccccc6n2c5c31)C(=O)NC4`, the deltaTm is 6.2 K on Ephrin type-A receptor 4; 6.4 K in assay [2]; 6.1 K in assay [3]; 10.2 K in assay [4]; 6.4 K at Ephrin type-A receptor 2.

On to `O=S1(=O)NCCCNc2nc(ncc2-c2ccc(F)c(C(F)(F)F)c2)Nc2cccc1c2`, for which the deltaTm at Ephrin type-A receptor 4 came to 0.7 K; in assay [1] it was 0.9 K; in [2], 0.6 K; in [3], 0.6 K; in assay [4], 1.8 K; on Ephrin type-A receptor 2, 3 K. The deltaTm in [5] was 1.6 K; in assay [6] it was 1.3 K; in assay [7], 2.1 K; in assay [8] it was 3.1 K.

`COc1cc(-c2cnc3nc2NCCCNS(=O)(=O)c2cccc(c2)N3)cc(OC)c1OC`: the deltaTm on Ephrin type-A receptor 4 is 2.2 K; in assay [1], -0.3 K; in [2] it was 2.2 K; in assay [3] it was 2.4 K; in assay [4], 0.7 K; on Ephrin type-A receptor 2 it was 6 K. For the same compound, the deltaTm in assay [5] is 2.9 K; in assay [6], 0.8 K; in assay [7], 1.2 K; in [8], 5.9 K.

With `Nc1cc(-c2cnc3nc2NCCCNS(=O)(=O)c2cccc(c2)N3)ccc1F`, the deltaTm came to 4.4 K at Ephrin type-A receptor 4; 0.2 K in assay [1]; 3.6 K in [2]; 1.7 K in [3]; 4.9 K in assay [4]; 7.7 K on Ephrin type-A receptor 2. For the same compound, the deltaTm in [5] was found to be 4.6 K; in [6] it was 2.2 K; in assay [7], 4.6 K; in assay [8], 6 K.

For `O=S1(=O)NCCCNc2nc(ncc2Br)Nc2cccc1c2`, the figures for the deltaTm (at Ephrin type-A receptor 2; in assay [8]) were 6.7 K and 4.9 K, respectively.

The record behind these values is ChEMBL document CHEMBL5550200, “Back-Pocket Optimization of 2-Aminopyrimidine-Based Macrocycles Leads to Potent EPHA2/GAK Kinase Inhibitors” (J Med Chem, 2024).
